# From patent publication US8952024B2, “Herbicidal pyrimidone derivatives” (E I du Pont de Nemours and Company, priority 2009, dated 2015)
# Tests used:
# Type in all cases: in vivo
# [1] = system: chickweed (Stellaria media); assay: Test B postemergence plant response; conditions: Postemergence
# Summary of the method: (§1)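 Plants at the 1- to 4-leaf stage (2 to 18 cm tall), grown in pots of peat moss/vermiculite medium with wetting agent and starter nutrients, received postemergence applications of test chemicals. After 13 to 15 days in a greenhouse, injury was rated visually against untreated controls on a 0 (no effect) to 100 (complete control) scale.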
# [2] = system: canarygrass (Phalaris minor); assay: Test B postemergence plant response; conditions: Postemergence
# Summary of the method: as §1
# [3] = system: windgrass (Apera spica-venti); assay: Test B postemergence plant response; conditions: Postemergence
# Summary of the method: as §1
# [4] = system: wild oat (Avena fatua); assay: Test B pre-/postemergence plant response
# Summary of the method: (§2)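 Steps: sow seed in loam–sand soil and spray preemergence, or grow plants in peat-based medium to 1–4 leaves (2–18 cm) and spray postemergence; formulation is non-phytotoxic solvent plus surfactant; hold in greenhouse 13–15 days; score visually vs controls, 0 = no effect, 100 = complete control.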
# [5] = system: bermudagrass (Cynodon dactylon); assay: Test B pre-/postemergence plant response
# Summary of the method: as §2
# [6] = system: velvetleaf (Abutilon theophrasti); assay: Test B pre-/postemergence plant response
# Summary of the method: as §2
# [7] = system: yellow nutsedge (Cyperus esculentus); assay: Test B pre-/postemergence plant response
# Summary of the method: as §2
# [8] = system: morningglory (Ipomoea coccinea); assay: Test B pre-/postemergence plant response
# Summary of the method: as §2
# [9] = system: kochia (Kochia scoparia); assay: Test B pre-/postemergence plant response
# Summary of the method: as §2
# [10] = system: green foxtail (Setaria viridis); assay: Test B pre-/postemergence plant response
# Summary of the method: as §2
# [11] = system: downy bromegrass (Bromus tectorum); assay: Test B pre-/postemergence plant response
# Summary of the method: as §2
# [12] = system: wheat (Triticum aestivum); assay: Test B pre-/postemergence plant response
# Summary of the method: as §2
# [13] = system: ragweed (common ragweed, Ambrosia elatior); assay: Test B pre-/postemergence plant response
# Summary of the method: as §2
# [14] = system: blackgrass (Alopecurus myosuroides); assay: Test B pre-/postemergence plant response
# Summary of the method: as §2
# [15] = system: cocklebur (Xanthium strumarium); assay: Test B pre-/postemergence plant response
# Summary of the method: as §2
# [16] = system: giant foxtail (Setaria faberii); assay: Test B pre-/postemergence plant response
# Summary of the method: as §2
# [17] = system: johnsongrass (Sorghum halepense); assay: Test B pre-/postemergence plant response
# Summary of the method: as §2
# [18] = system: soybean (Glycine max); assay: Test B pre-/postemergence plant response
# Summary of the method: as §2
# [19] = 31 g ai/ha, scale 0 to 100 (0 no effect, 100 complete control)
# [20] = 62 g ai/ha, scale 0 (no effect) to 100 (complete control), 13 to 15 days
# [21] = 125 g ai/ha, visual rating after 13 to 15 days, scale 0 (no effect) to 100 (complete control)
# [22] = 250 g ai/ha, Preemergence, 0 to 100 scale
# [23] = Postemergence, 31 g ai/ha, scale 0 to 100 (0 no effect, 100 complete control)
# [24] = Postemergence, 62 g ai/ha, scale 0 (no effect) to 100 (complete control), 13 to 15 days
# [25] = Postemergence, 125 g ai/ha, visual rating after 13 to 15 days, scale 0 (no effect) to 100 (complete control)
# [26] = Postemergence, 250 g ai/ha, scale 0 to 100
# [27] = Preemergence, 31 g ai/ha, scale 0 to 100 (0 no effect, 100 complete control)
# [28] = Preemergence, 62 g ai/ha, scale 0 to 100, 0 no effect, 100 complete control
# [29] = Preemergence, 125 g ai/ha, 0 to 100 scale
smiles,measurement,setting,value
Cc1cccc(-n2c(-c3ccccc3)ncc(C(=O)C3=C(O)CCCC3=O)c2=O)c1C [Compound 27],"Plant response rating, Chickweed",[1]; [19],40
same,"Plant response rating, Chickweed",[1]; [20],45
same,"Plant response rating, Chickweed",[1]; [21],50
same,Chickweed plant response rating,"[1]; 250 g ai/ha, scale 0 to 100",80
same,"Plant response rating, Canarygrass",[2]; [19],10
same,"Plant response rating, Canarygrass",[2]; [20],10
same,"Plant response rating, Canarygrass",[2]; [21],30
same,Canarygrass plant response rating,"[2]; 250 g ai/ha, scale 0 to 100",50
same,"Plant response rating, Windgrass",[3]; [19],10
same,"Plant response rating, Windgrass",[3]; [20],10
same,"Plant response rating, Windgrass",[3]; [21],50
same,Windgrass plant response rating,"[3]; 250 g ai/ha, scale 0 to 100",60
same,"Plant response rating, Oat, Wild",[4]; [22],50
same,"Plant response rating, Oat, Wild",[4]; [23],45
same,"Plant response rating, Oat, Wild",[4]; [24],50
same,"Plant response rating, Oat, Wild",[4]; [25],50
same,"Oat, Wild plant response rating",[4]; [26],65
same,"Plant response rating, Oat, Wild",[4]; [27],0
same,"Plant response rating, Oat, Wild",[4]; [28],0
same,"Oat, Wild plant response rating",[4]; [29],30
same,"Plant response rating, Bermudagrass",[5]; [22],100
same,"Plant response rating, Bermudagrass",[5]; [23],70
same,"Plant response rating, Bermudagrass",[5]; [24],90
same,"Plant response rating, Bermudagrass","[5]; Postemergence, 125 g ai/ha, scale 0 to 100 (0 no effect, 100 complete control), 13 to 15 days",100
same,Bermudagrass plant response rating,[5]; [26],100
same,"Plant response rating, Bermudagrass",[5]; [27],70
same,"Plant response rating, Bermudagrass",[5]; [28],98
same,Bermudagrass plant response rating,[5]; [29],100
same,"Plant response rating, Velvetleaf",[6]; [22],95
same,"Plant response rating, Velvetleaf",[6]; [23],50
same,"Plant response rating, Velvetleaf",[6]; [24],60
same,"Plant response rating, Velvetleaf",[6]; [25],80
same,Velvetleaf plant response rating,[6]; [26],90
same,"Plant response rating, Velvetleaf",[6]; [27],55
same,"Plant response rating, Velvetleaf",[6]; [28],85
same,Velvetleaf plant response rating,[6]; [29],90
same,"Plant response rating, Nutsedge, Yellow",[7]; [22],90
same,"Plant response rating, Nutsedge, Yellow",[7]; [23],30
same,"Plant response rating, Nutsedge, Yellow",[7]; [24],40
same,"Plant response rating, Nutsedge, Yellow",[7]; [25],50
same,"Nutsedge, Yellow plant response rating",[7]; [26],55
same,"Plant response rating, Nutsedge, Yellow",[7]; [27],0
same,"Plant response rating, Nutsedge, Yellow",[7]; [28],20
same,"Nutsedge, Yellow plant response rating",[7]; [29],30
same,"Plant response rating, Morningglory",[8]; [22],100
same,"Plant response rating, Morningglory",[8]; [23],50
same,"Plant response rating, Morningglory",[8]; [24],80
same,"Plant response rating, Morningglory",[8]; [25],80
same,Morningglory plant response rating,[8]; [26],90
same,"Plant response rating, Morningglory",[8]; [27],100
same,"Plant response rating, Morningglory",[8]; [28],100
same,Morningglory plant response rating,[8]; [29],100
same,"Plant response rating, Kochia",[9]; [22],100
same,"Plant response rating, Kochia",[9]; [25],100
same,Kochia plant response rating,[9]; [26],100
same,"Plant response rating, Kochia",[9]; [27],100
same,"Plant response rating, Kochia",[9]; [28],100
same,Kochia plant response rating,[9]; [29],100
same,"Plant response rating, Foxtail, Green",[10]; [22],80
same,"Plant response rating, Foxtail, Green",[10]; [23],80
same,"Plant response rating, Foxtail, Green",[10]; [24],80
same,"Plant response rating, Foxtail, Green",[10]; [25],80
same,"Foxtail, Green plant response rating",[10]; [26],90
same,"Plant response rating, Foxtail, Green",[10]; [27],0
same,"Plant response rating, Foxtail, Green",[10]; [28],30
same,"Foxtail, Green plant response rating",[10]; [29],50
same,"Plant response rating, Bromegrass, Downy",[11]; [22],30
same,"Plant response rating, Bromegrass, Downy",[11]; [23],5
same,"Plant response rating, Bromegrass, Downy",[11]; [24],5
same,"Plant response rating, Bromegrass, Downy",[11]; [25],20
same,"Bromegrass, Downy plant response rating",[11]; [26],30
same,"Plant response rating, Bromegrass, Downy",[11]; [27],0
same,"Plant response rating, Bromegrass, Downy",[11]; [28],0
same,"Bromegrass, Downy plant response rating",[11]; [29],0
same,"Plant response rating, Wheat",[12]; [22],5
same,"Plant response rating, Wheat",[12]; [23],0
same,"Plant response rating, Wheat",[12]; [24],5
same,"Plant response rating, Wheat",[12]; [25],10
same,Wheat plant response rating,[12]; [26],30
same,"Plant response rating, Wheat",[12]; [27],0
same,"Plant response rating, Wheat",[12]; [28],0
same,Wheat plant response rating,[12]; [29],0
same,"Plant response rating, Ragweed",[13]; [22],100
same,"Plant response rating, Ragweed",[13]; [23],85
same,"Plant response rating, Ragweed",[13]; [24],98
same,"Plant response rating, Ragweed",[13]; [25],100
same,Ragweed plant response rating,[13]; [26],100
same,"Plant response rating, Ragweed",[13]; [27],85
same,"Plant response rating, Ragweed",[13]; [28],85
same,Ragweed plant response rating,[13]; [29],100
same,"Plant response rating, Blackgrass",[14]; [22],30
same,"Plant response rating, Blackgrass",[14]; [23],0
same,"Plant response rating, Blackgrass",[14]; [24],5
same,"Plant response rating, Blackgrass",[14]; [25],45
same,Blackgrass plant response rating,[14]; [26],50
same,"Plant response rating, Blackgrass",[14]; [27],0
same,"Plant response rating, Blackgrass",[14]; [28],0
same,Blackgrass plant response rating,[14]; [29],10
same,"Plant response rating, Cocklebur",[15]; [22],90
same,"Plant response rating, Cocklebur",[15]; [23],90
same,"Plant response rating, Cocklebur",[15]; [24],95
same,"Plant response rating, Cocklebur",[15]; [25],95
same,Cocklebur plant response rating,[15]; [26],98
same,"Plant response rating, Cocklebur",[15]; [27],0
same,"Plant response rating, Cocklebur",[15]; [28],85
same,Cocklebur plant response rating,[15]; [29],85
same,"Plant response rating, Foxtail, Giant",[16]; [22],95
same,"Plant response rating, Foxtail, Giant",[16]; [23],65
same,"Plant response rating, Foxtail, Giant",[16]; [24],85
same,"Plant response rating, Foxtail, Giant",[16]; [25],90
same,"Foxtail, Giant plant response rating",[16]; [26],90
same,"Plant response rating, Foxtail, Giant",[16]; [27],0
same,"Plant response rating, Foxtail, Giant",[16]; [28],5
same,"Foxtail, Giant plant response rating",[16]; [29],85
same,"Plant response rating, Johnsongrass",[17]; [22],85
same,"Plant response rating, Johnsongrass",[17]; [23],40
same,"Plant response rating, Johnsongrass",[17]; [24],45
same,"Plant response rating, Johnsongrass",[17]; [25],45
same,Johnsongrass plant response rating,[17]; [26],80
same,"Plant response rating, Johnsongrass",[17]; [27],0
same,"Plant response rating, Johnsongrass",[17]; [28],5
same,Johnsongrass plant response rating,[17]; [29],50
same,"Plant response rating, Soybean",[18]; [22],90
same,"Plant response rating, Soybean",[18]; [23],95
same,"Plant response rating, Soybean",[18]; [24],95
same,"Plant response rating, Soybean",[18]; [25],95
same,Soybean plant response rating,[18]; [26],100
same,"Plant response rating, Soybean",[18]; [27],70
same,"Plant response rating, Soybean",[18]; [28],70
same,Soybean plant response rating,[18]; [29],80
